Source: US7192906B2, “Substituted pyrazole derivatives, production process thereof, and herbicide compositions containing the derivatives” (SDS Biotech K.K., priority 2001, dated 2007)

Tested on: soybean (Glycine max)
Experiment: Test Example 2 upland soil treatment, crop phytotoxicity
Type: in vivo
Settings: Table 5, upland soil treatment, index 0-5
How it was run: (§1)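 Visual 0–5 grading of herbicidal effect or phytotoxicity, made 21 days after a single pre-emergence soil-surface application at 1 kg a.i./ha.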

| SMILES | Herbicidal activity (phytotoxicity) GM: Soybean (Glycine max) |
| --- | --- |
| CNC(=O)C(Cn1cc(C)c(-c2ccccc2)n1)=NOCF [Compound 103] | 0 (herbicidal effect of not less than 0% and less than 10%, or phytotoxicity of 0% or more and less than 10%) |
| C=CCON=C(Cn1cc(C)c(-c2ccccc2)n1)C(=O)NC [Compound 105] | 0 (herbicidal effect of not less than 0% and less than 10%, or phytotoxicity of 0% or more and less than 10%) |

Tested on: wheat (Triticum aestivum)
Experiment: as above
Type: in vivo
Settings: Table 5, upland soil treatment, index 0-5
How it was run: as §1

| SMILES | Herbicidal activity (phytotoxicity) TA: Wheat (Triticum aestivum) |
| --- | --- |
| CNC(=O)C(Cn1cc(C)c(-c2ccccc2)n1)=NOCF [Compound 103] | 0 (herbicidal effect of not less than 0% and less than 10%, or phytotoxicity of 0% or more and less than 10%) |
| C=CCON=C(Cn1cc(C)c(-c2ccccc2)n1)C(=O)NC [Compound 105] | 0 (herbicidal effect of not less than 0% and less than 10%, or phytotoxicity of 0% or more and less than 10%) |

Tested on: Echinochloa crusgalli
Experiment: Test Example 3 paddy field treatment
Type: in vivo
Settings: Table 6, paddy field treatment, active ingredient 1 kg per hectare, 21st day after dropping, index 0-5
How it was run: (§2)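 Weed seeds sown in puddled paddy soil under 4 cm water, with two-leaf Koshihikari rice transplanted; 10 days later a wettable powder was applied to the water surface at 1 kg active ingredient/ha. Scored 21 days after application on a 0–5 scale (0 = <10%, 5 = ≥90% herbicidal effect or phytotoxicity).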

| SMILES | Herbicidal activity EC |
| --- | --- |
| CNC(=O)C(Cn1cc(C)c(-c2ccccc2)n1)=NOCF [Compound 103] | 5 (herbicidal effect of not less than 90%, or phytotoxicity of 90% or more) |
| C=CCON=C(Cn1cc(C)c(-c2ccccc2)n1)C(=O)NC [Compound 105] | 4 (herbicidal effect of not less than 70% and less than 90%, or phytotoxicity of 70% or more and less than 90%) |

Tested on: Monochoria vaginalis
Experiment: Test Example 3 paddy field treatment
Type: in vivo
Settings: Table 6, paddy field treatment, active ingredient 1 kg per hectare, 21st day after dropping, index 0-5
How it was run: as §2

| SMILES | Herbicidal activity MV |
| --- | --- |
| CNC(=O)C(Cn1cc(C)c(-c2ccccc2)n1)=NOCF [Compound 103] | 5 (herbicidal effect of not less than 90%, or phytotoxicity of 90% or more) |
| C=CCON=C(Cn1cc(C)c(-c2ccccc2)n1)C(=O)NC [Compound 105] | 5 (herbicidal effect of not less than 90%, or phytotoxicity of 90% or more) |

Tested on: Ammannia multiflora
Experiment: Test Example 3 paddy field treatment
Type: in vivo
Settings: Table 6, paddy field treatment, active ingredient 1 kg per hectare, 21st day after dropping, index 0-5
How it was run: as §2

| SMILES | Herbicidal activity AM |
| --- | --- |
| CNC(=O)C(Cn1cc(C)c(-c2ccccc2)n1)=NOCF [Compound 103] | 5 (herbicidal effect of not less than 90%, or phytotoxicity of 90% or more) |
| C=CCON=C(Cn1cc(C)c(-c2ccccc2)n1)C(=O)NC [Compound 105] | 5 (herbicidal effect of not less than 90%, or phytotoxicity of 90% or more) |

Tested on: Scirpus juncoides
Experiment: Test Example 3 paddy field treatment
Type: in vivo
Settings: Table 6, paddy field treatment, active ingredient 1 kg per hectare, 21st day after dropping, index 0-5
How it was run: as §2

| SMILES | Herbicidal activity SJ |
| --- | --- |
| CNC(=O)C(Cn1cc(C)c(-c2ccccc2)n1)=NOCF [Compound 103] | 5 (herbicidal effect of not less than 90%, or phytotoxicity of 90% or more) |
| C=CCON=C(Cn1cc(C)c(-c2ccccc2)n1)C(=O)NC [Compound 105] | 4 (herbicidal effect of not less than 70% and less than 90%, or phytotoxicity of 70% or more and less than 90%) |

Tested on: soybean (Glycine max)
Experiment: Test Example 1 upland field foliage treatment, crop phytotoxicity
Type: in vivo
Settings: Table 4, upland field foliage treatment, index 0-5
How it was run: (§3)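 Scores are visual 0–5 ratings of herbicidal effect or crop injury (0: under 10%; 5: 90% or more) taken 21 days after treatment. Plants grew from seed in upland soil for 14 days, then foliage received the compound as a water-diluted wettable powder at 1 kg/ha active ingredient.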

| SMILES | Herbicidal activity (phytotoxicity) GM: Soybean (Glycine max) |
| --- | --- |
| CNC(=O)C(Cn1cc(C)c(-c2ccccc2)n1)=NOCF [Compound 103] | 0 (herbicidal effect of not less than 0% and less than 10%, or phytotoxicity of 0% or more and less than 10%) |
| C=CCON=C(Cn1cc(C)c(-c2ccccc2)n1)C(=O)NC [Compound 105] | 0 (herbicidal effect of not less than 0% and less than 10%, or phytotoxicity of 0% or more and less than 10%) |

Tested on: wheat (Triticum aestivum)
Experiment: as above
Type: in vivo
Settings: Table 4, upland field foliage treatment, index 0-5
How it was run: as §3

| SMILES | Herbicidal activity (phytotoxicity) TA: Wheat (Triticum aestivum) |
| --- | --- |
| CNC(=O)C(Cn1cc(C)c(-c2ccccc2)n1)=NOCF [Compound 103] | 0 (herbicidal effect of not less than 0% and less than 10%, or phytotoxicity of 0% or more and less than 10%) |
| C=CCON=C(Cn1cc(C)c(-c2ccccc2)n1)C(=O)NC [Compound 105] | 0 (herbicidal effect of not less than 0% and less than 10%, or phytotoxicity of 0% or more and less than 10%) |

Tested on: Stellaria media
Experiment: Test Example 1 upland field foliage treatment
Type: in vivo
Settings: Table 4, upland field foliage treatment, index 0-5
How it was run: as §3

| SMILES | Herbicidal activity SM: Stellaria media |
| --- | --- |
| CNC(=O)C(Cn1cc(C)c(-c2ccccc2)n1)=NOCF [Compound 103] | 5 (herbicidal effect of not less than 90%, or phytotoxicity of 90% or more) |
| C=CCON=C(Cn1cc(C)c(-c2ccccc2)n1)C(=O)NC [Compound 105] | 5 (herbicidal effect of not less than 90%, or phytotoxicity of 90% or more) |

Tested on: Chenopodium album
Experiment: Test Example 1 upland field foliage treatment
Type: in vivo
Settings: Table 4, upland field foliage treatment, index 0-5
How it was run: as §3

| SMILES | Herbicidal activity CA: Chenopodium album |
| --- | --- |
| CNC(=O)C(Cn1cc(C)c(-c2ccccc2)n1)=NOCF [Compound 103] | 5 (herbicidal effect of not less than 90%, or phytotoxicity of 90% or more) |
| C=CCON=C(Cn1cc(C)c(-c2ccccc2)n1)C(=O)NC [Compound 105] | 5 (herbicidal effect of not less than 90%, or phytotoxicity of 90% or more) |

Tested on: Digitaria adscendens
Experiment: Test Example 1 upland field foliage treatment
Type: in vivo
Settings: Table 4, upland field foliage treatment, index 0-5
How it was run: as §3

| SMILES | Herbicidal activity DA: Digitaria adscendens |
| --- | --- |
| CNC(=O)C(Cn1cc(C)c(-c2ccccc2)n1)=NOCF [Compound 103] | 4 (herbicidal effect of not less than 70% and less than 90%, or phytotoxicity of 70% or more and less than 90%) |
| C=CCON=C(Cn1cc(C)c(-c2ccccc2)n1)C(=O)NC [Compound 105] | 5 (herbicidal effect of not less than 90%, or phytotoxicity of 90% or more) |

Tested on: Setaria viridis
Experiment: Test Example 1 upland field foliage treatment
Type: in vivo
Settings: Table 4, upland field foliage treatment, index 0-5
How it was run: as §3

| SMILES | Herbicidal activity SV: Setaria viridis |
| --- | --- |
| CNC(=O)C(Cn1cc(C)c(-c2ccccc2)n1)=NOCF [Compound 103] | 3 (herbicidal effect of not less than 50% and less than 70%, or phytotoxicity of 50% or more and less than 70%) |
| C=CCON=C(Cn1cc(C)c(-c2ccccc2)n1)C(=O)NC [Compound 105] | 5 (herbicidal effect of not less than 90%, or phytotoxicity of 90% or more) |

Tested on: Stellaria media
Experiment: Test Example 2 upland soil treatment
Type: in vivo
Settings: Table 5, upland soil treatment, index 0-5
How it was run: as §1

| SMILES | Herbicidal activity SM: Stellaria media |
| --- | --- |
| CNC(=O)C(Cn1cc(C)c(-c2ccccc2)n1)=NOCF [Compound 103] | 5 (herbicidal effect of not less than 90%, or phytotoxicity of 90% or more) |
| C=CCON=C(Cn1cc(C)c(-c2ccccc2)n1)C(=O)NC [Compound 105] | 4 (herbicidal effect of not less than 70% and less than 90%, or phytotoxicity of 70% or more and less than 90%) |

Tested on: Chenopodium album
Experiment: Test Example 2 upland soil treatment
Type: in vivo
Settings: Table 5, upland soil treatment, index 0-5
How it was run: as §1

| SMILES | Herbicidal activity CA: Chenopodium album |
| --- | --- |
| CNC(=O)C(Cn1cc(C)c(-c2ccccc2)n1)=NOCF [Compound 103] | 5 (herbicidal effect of not less than 90%, or phytotoxicity of 90% or more) |
| C=CCON=C(Cn1cc(C)c(-c2ccccc2)n1)C(=O)NC [Compound 105] | 4 (herbicidal effect of not less than 70% and less than 90%, or phytotoxicity of 70% or more and less than 90%) |

Tested on: Digitaria adscendens
Experiment: Test Example 2 upland soil treatment
Type: in vivo
Settings: Table 5, upland soil treatment, index 0-5
How it was run: as §1

| SMILES | Herbicidal activity DA: Digitaria adscendens |
| --- | --- |
| CNC(=O)C(Cn1cc(C)c(-c2ccccc2)n1)=NOCF [Compound 103] | 5 (herbicidal effect of not less than 90%, or phytotoxicity of 90% or more) |
| C=CCON=C(Cn1cc(C)c(-c2ccccc2)n1)C(=O)NC [Compound 105] | 4 (herbicidal effect of not less than 70% and less than 90%, or phytotoxicity of 70% or more and less than 90%) |

Tested on: Setaria viridis
Experiment: Test Example 2 upland soil treatment
Type: in vivo
Settings: Table 5, upland soil treatment, index 0-5
How it was run: as §1

| SMILES | Herbicidal activity SV: Setaria viridis |
| --- | --- |
| CNC(=O)C(Cn1cc(C)c(-c2ccccc2)n1)=NOCF [Compound 103] | 4 (herbicidal effect of not less than 70% and less than 90%, or phytotoxicity of 70% or more and less than 90%) |
| C=CCON=C(Cn1cc(C)c(-c2ccccc2)n1)C(=O)NC [Compound 105] | 4 (herbicidal effect of not less than 70% and less than 90%, or phytotoxicity of 70% or more and less than 90%) |

Tested on: Rice (Oryza sativa)
Experiment: Test Example 3 paddy field treatment, crop phytotoxicity
Type: in vivo
Settings: Table 6, paddy field treatment, transplanted rice, active ingredient 1 kg per hectare, 21st day after dropping, index 0-5
How it was run: as §2

| SMILES | Herbicidal activity (phytotoxicity) OS |
| --- | --- |
| CNC(=O)C(Cn1cc(C)c(-c2ccccc2)n1)=NOCF [Compound 103] | 0 (herbicidal effect of not less than 0% and less than 10%, or phytotoxicity of 0% or more and less than 10%) |
| C=CCON=C(Cn1cc(C)c(-c2ccccc2)n1)C(=O)NC [Compound 105] | 0 (herbicidal effect of not less than 0% and less than 10%, or phytotoxicity of 0% or more and less than 10%) |
